Test results: patent publication US20210145951A1, “COMPOSITIONS AND METHODS FOR SHARED NEO-EPITOPE VACCINES” (Epivax Oncology, Inc., priority 2019, published 2021)

Experiments:
[1] = test system: CT26 murine colon tumor cells; assay: CT26 tumor growth with or without poly-ICLC (Example 13); type: in vivo, BALB/c mice; conditions: day 25 post-tumor implantation, relative to PBS or poly-ICLC alone
Description: The goal of this experiment was to determine the requirement for the inclusion of the adjuvant poly-ICLC in a peptide vaccine containing ANCER™ selected neoantigens. For this experiment, female BALB/c mice were implanted subcutaneously with 3×10^5 CT26 murine colon tumor cells. Tumor growth was monitored by caliper measurement and mice were sacrificed 45 days after tumor implantation or when tumor volumes reached 2000 mm^3, whichever came first.
Four vaccine groups were tested (n=10 mice/group):
Peptide vaccines were comprised of 20 different ANCER™ selected peptides at a concentration of 5 μg/peptide for a total dose of 100 μg peptide per immunization. Mice were immunized subcutaneously in the opposite flank from tumor implantation twice per week for three weeks, starting at day 4 post-tumor implantation.

CT26 tumor cells = assay: CT26 tumor growth and survival after vaccination (Example 1); type: in vivo; conditions: CT26 in Balb/c mice

poly-ICLC
control of tumor growth [1]: no difference in tumor growth kinetics | mice reaching a tumor volume of at least 2,000 mm^3 (endpoint) by day 28 (CT26 tumor cells; N=10): 60% | mice that survived past day 28 (CT26 tumor cells; N=10): Less than 50% | mice that survived the 45 days of the experiment (CT26 tumor cells; N=10, in words): None | tumor burden compared to Group 1 (PBS) (CT26 tumor cells; sc injections days 5-26): no reduction in tumor burden
